# Test results reported in US20240228468A1, “N-(6-((OCTAHYDROCYCLOPENTA[C]PYRROL-5-YI)AMINO)PYRIDAZIN-3-YL)PHENYL)CARBOXAMIDE AND (6- ((OCTAHYDROCYCLOPENTA[C]PYRROL-5-YL)AMINO)PYRIDAZIN-3-YL)BENZAMIDE DERIVATIVES AS MACHR M4 ANTAGONISTS FOR THE TREATMENT OF NEURODEGENERATIVE DISORDERS” (Vanderbilt University, priority 2021, published 2024).
# Where two headings read alike, the source gives them in different places.
# Target: T1, Human M4 (Homo sapiens, UniProt P08173)
# T1 construct: expressed in transfected cells; host or cells: CHO-K1 (ATCC), co-transfected with chimeric G protein Gqi5
# T1 sequence (P08173 1-479): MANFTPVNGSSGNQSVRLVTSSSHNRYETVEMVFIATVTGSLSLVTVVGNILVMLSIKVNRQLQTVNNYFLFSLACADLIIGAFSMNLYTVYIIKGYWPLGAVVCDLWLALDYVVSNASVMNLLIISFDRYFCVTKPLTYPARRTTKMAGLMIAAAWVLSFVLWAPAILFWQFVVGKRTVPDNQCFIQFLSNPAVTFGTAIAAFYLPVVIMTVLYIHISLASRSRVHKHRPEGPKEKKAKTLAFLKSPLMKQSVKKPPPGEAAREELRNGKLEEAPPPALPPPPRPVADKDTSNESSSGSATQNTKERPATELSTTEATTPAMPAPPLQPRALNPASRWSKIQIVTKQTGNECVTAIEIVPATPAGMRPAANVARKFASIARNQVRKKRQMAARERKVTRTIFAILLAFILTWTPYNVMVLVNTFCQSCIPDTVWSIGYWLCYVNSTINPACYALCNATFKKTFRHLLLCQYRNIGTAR
# Experiment: mAChR M4 cell-based functional assay (calcium flux, antagonism of EC80 acetylcholine response)
# Conditions: for IC50: concentration-dependent decrease of the response elicited by an EC80 concentration of acetylcholine
# Procedure: Human or rat M4 cDNA, along with the chimeric G protein Gqi5, were transfected into Chinese hamster ovary (CHO-K1) cells purchased from the American Type Culture Collection using Lipofectamine2000. M4/Gqi5/CHO cells were grown in Ham's F-12 medium containing 10% heat-inactivated fetal bovine serum (FBS), 20 mM HEPES, 500 μg/mL G418 sulfate, and 200 μg/mL Hygromycin B.
# For high throughput measurement of agonist-evoked increases in intracellular calcium, CHO-K1 cells stably expressing muscarinic receptors were plated in growth medium lacking G418 and hygromycin at 15,000 cells/20 μL/well in Greiner 384-well black-walled, tissue culture (TC)-treated, clear-bottom plates (VWR). Cells were incubated overnight at 37° C. and 5% CO2. The next day, cells were washed using an ELX 405 (BioTek) with assay buffer; the final volume was then aspirated to 20 μL. Next, 20 μL of a 2.3 μM stock of Fluo-4/acetoxymethyl ester (Invitrogen, Carlsbad, CA), prepared as a 2.3 mM stock in DMSO and mixed in a 1:1 ratio with 10% (w/v) Pluronic F-127 and diluted in assay buffer, was added to the wells and the cell plates were incubated for 50 min at 37° C. and 5% CO2. Dye was removed by washing with the ELX 405 and the final volume was aspirated to 20 μL. Compound master plates were formatted in a 10 point concentration-response curve (CRC) format (1:3 dilutions) in 100% DMSO with a starting concentration of 10 or 1 mM using a BRAVO liquid handler (Agilent). Test compound CRCs were then transferred to daughter plates (240 nL) using the Echo acoustic plate reformatter (Labcyte, Sunnyvale, CA) and then diluted into assay buffer (40 μL) to a 2× stock using a Thermo Fisher Combi (Thermo Fisher Scientific, Waltham, MA).
# Calcium flux was measured using the Functional Drug Screening System (FDSS) 6000 or 7000 (Hamamatsu Corporation, Tokyo, Japan) as an increase in the fluorescent static ratio. Compounds were applied to cells (20 μL, 2×) using the automated system of the FDSS at 2 seconds into the protocol and the data were collected at 1 Hz. At 143 s, 10 μL of an EC20 concentration of the muscarinic receptor agonist acetylcholine was added (5×), followed by the addition of 12 μL of an EC80 concentration of acetylcholine at the 268 s time point (5×). Agonist activity was analyzed as a concentration-dependent increase in calcium mobilization upon compound addition. Positive allosteric modulator activity was analyzed as a concentration-dependent increase in the EC20 acetylcholine response. Antagonist activity was analyzed as a concentration-dependent decrease in the EC80 acetylcholine response; for the purposes of the tables herein, an IC50 (inhibitory concentration 50) was calculated as a concentration-dependent decrease of the response elicited by an EC80 concentration of acetylcholine. Concentration-response curves were generated using a four-parameter logistical equation in XLFit curve fitting software (IDBS, Bridgewater, NJ) for Excel (Microsoft, Redmond, WA) or Prism (GraphPad Software, Inc., San Diego, CA) or the Dotmatics software platform (Dotmatics, Bishop's Stortford, UK).
# Compounds were synthesized as described above. Activity (IC50 and Emin) was determined in the mAChR M4 cell-based functional assay as described above and the data are shown in Table 2.
# [1] = M4/Gqi5/CHO-K1 cells, % ACh maximum at 30 μM, read-out: Human M4 Emin (% ACh maximum at 30 μM)
# [2] = CHO-K1, read-out: Human M4 Emin (% ACh maximum at 30 μM)
SMILES,remaining activity at 30 µM [1],IC50 (M4/Gqi5/CHO-K1 cells),remaining activity at 30 µM [2]
"O=C(Nc1cc(F)c(F)c(-c2ccc(N[C@H]3C[C@@H]4CN(CC5CCOCC5)C[C@@H]4C3)nn2)c1)C1(C(F)(F)F)CC1 [Compound A11, N-(3,4-difluoro-5-(6-(((3aR,5s,6aS)-2-((tetrahydro-2H-pyran-4-yl)methyl)octahydrocyclopenta[c]pyrrol-5-yl)amino)pyridazin-3-yl)phenyl)-1-(trifluoromethyl)cyclopropane-1-carboxamide]",3%,66 nM,
"O=C(Nc1cc(F)c(F)c(-c2ccc(N[C@H]3C[C@@H]4CN(CC5CCOCC5)C[C@@H]4C3)nn2)c1)C1(F)CC1 [Compound A12, N-(3,4-difluoro-5-(6-(((3aR,5s,6aS)-2-((tetrahydro-2H-pyran-4-yl)methyl)octahydrocyclopenta[c]pyrrol-5-yl)amino)pyridazin-3-yl)phenyl)-1-fluorocyclopropane-1-carboxamide]",4%,85 nM,
"O=C(Nc1cc(F)c(F)c(-c2ccc(N[C@H]3C[C@@H]4CN(CC5CCOCC5)C[C@@H]4C3)nn2)c1)C1(O)CCC1 [Compound A13, N-(3,4-difluoro-5-(6-(((3aR,5s,6aS)-2-((tetrahydro-2H-pyran-4-yl)methyl)octahydrocyclopenta[c]pyrrol-5-yl)amino)pyridazin-3-yl)phenyl)-1-hydroxycyclobutane-1-carboxamide]",4%,64 nM,
"O=C(Nc1cc(F)c(F)c(-c2ccc(N[C@H]3C[C@@H]4CN(CC5CCOCC5)C[C@@H]4C3)nn2)c1)C1CC(F)(F)C1 [Compound A14, N-(3,4-difluoro-5-(6-(((3aR,5s,6aS)-2-((tetrahydro-2H-pyran-4-yl)methyl)octahydrocyclopenta[c]pyrrol-5-yl)amino)pyridazin-3-yl)phenyl)-3,3-difluorocyclobutane-1-carboxamide]",4%,160 nM,
"O=C(Nc1cc(F)c(F)c(-c2ccc(N[C@H]3C[C@@H]4CN(CC5CCOCC5)C[C@@H]4C3)nn2)c1)C(F)F [Compound A15, N-(3,4-Difluoro-5-(6-(((3aR,5s,6aS)-2-((tetrahydro-2H-pyran-4-yl)methyl)octahydrocyclopenta[c]pyrrol-5-yl)amino)pyridazin-3-yl)phenyl)-2,2-difluoroacetamide]",,15 nM,4%
"CS(=O)(=O)CC(=O)Nc1cccc(-c2ccc(N[C@H]3C[C@@H]4CN(CC5CCOCC5)C[C@@H]4C3)nn2)c1 [Compound A17, 2-(Methylsulfonyl)-N-(3-(6-(((3aR,5s,6aS)-2-((tetrahydro-2H-pyran-4-yl)methyl)octahydrocyclopenta[c]pyrrol-5-yl)amino)pyridazin-3-yl)phenyl)acetamide]",,2.8 nM,3%
"O=C(NC12CC(C1)C2)c1cc(F)c(F)c(-c2ccc(N[C@H]3C[C@@H]4CN(CC5CCOCC5)C[C@@H]4C3)nn2)c1 [Compound A18, N-(Bicyclo[1.1.1]pentan-1-yl)-3,4-difluoro-5-(6-(((3aR,5s,6aS)-2-((tetrahydro-2H-pyran-4-yl)methyl)octahydrocyclopenta[c]pyrrol-5-yl)amino)pyridazin-3-yl)benzamide]",,27 nM,3%
"O=C(NC1CC(F)(F)C1)c1cc(F)c(F)c(-c2ccc(N[C@H]3C[C@@H]4CN(CC5CCOCC5)C[C@@H]4C3)nn2)c1 [Compound A19, N-(3,3-difluorocyclobutyl)-3,4-difluoro-5-(6-(((3aR,5s,6aS)-2-((tetrahydro-2H-pyran-4-yl)methyl)octahydrocyclopenta[c]pyrrol-5-yl)amino)pyridazin-3-yl)benzamide]",4%,82 nM,
"O=C(c1cc(F)c(F)c(-c2ccc(N[C@H]3C[C@@H]4CN(CC5CCOCC5)C[C@@H]4C3)nn2)c1)N1CC(F)(F)C1 [Compound A20, (3,4-difluoro-5-(6-(((3aR,5s,6aS)-2-((tetrahydro-2H-pyran-4-yl)methyl)octahydrocyclopenta[c]pyrrol-5-yl)amino)pyridazin-3-yl)phenyl)(3,3-difluoroazetidin-1-yl)methanone]",4%,100 nM,
"O=C(c1ccc(-c2ccc(N[C@H]3C[C@@H]4CN(CC5CCOCC5)C[C@@H]4C3)nn2)cc1)N1CCCC1 [Compound A21, Pyrrolidin-1-yl(4-(6-(((3aR,5s,6aS)-2-((tetrahydro-2H-pyran-4-yl)methyl)octahydrocyclopenta[c]pyrrol-5-yl)amino)pyridazin-3-yl)phenyl)methanone]",,3.9 nM,4%

# Continued, in another order:
remaining activity at 30 µM [1],IC50 (M4/Gqi5/CHO-K1 cells),SMILES,remaining activity at 30 µM [2]
4%,47 nM,"N#CCC(=O)Nc1cc(F)c(F)c(-c2ccc(N[C@H]3C[C@@H]4CN(CC5CCOCC5)C[C@@H]4C3)nn2)c1 [Compound A16, 2-cyano-N-(3,4-difluoro-5-(6-(((3aR,5s,6aS)-2-((tetrahydro-2H-pyran-4-yl)methyl)octahydrocyclopenta[c]pyrrol-5-yl)amino)pyridazin-3-yl)phenyl)acetamide]",
4%,21 nM,"O=C(c1ccc(-c2ccc(N[C@H]3C[C@@H]4CN(CC5CCOCC5)C[C@@H]4C3)nn2)cc1)N1CCCCC1 [Compound A22, piperidin-1-yl(4-(6-(((3aR,5s,6aS)-2-((tetrahydro-2H-pyran-4-yl)methyl)octahydrocyclopenta[c]pyrrol-5-yl)amino)pyridazin-3-yl)phenyl)methanone]",
3%,15 nM,"CC1(O)CN(C(=O)c2ccc(-c3ccc(N[C@H]4C[C@@H]5CN(CC6CCOCC6)C[C@@H]5C4)nn3)cc2)C1 [Compound A23, (3-hydroxy-3-methylazetidin-1-yl)(4-(6-(((3aR,5s,6aS)-2-((tetrahydro-2H-pyran-4-yl)methyl)octahydrocyclopenta[c]pyrrol-5-yl)amino)pyridazin-3-yl)phenyl)methanone]",
4%,37 nM,"CCN(CC)C(=O)c1ccc(-c2ccc(N[C@H]3C[C@@H]4CN(CC5CCOCC5)C[C@@H]4C3)nn2)cc1 [Compound A24, N,N-diethyl-4-(6-(((3aR,5s,6aS)-2-((tetrahydro-2H-pyran-4-yl)methyl)octahydrocyclopenta[c]pyrrol-5-yl)amino)pyridazin-3-yl)benzamide]",
4%,25 nM,"O=C(c1ccc(-c2ccc(N[C@H]3C[C@@H]4CN(CC5CCOCC5)C[C@@H]4C3)nn2)cc1)N1CCC(O)C1 (stereo partly drawn) [Compound A25, (3-hydroxypyrrolidin-1-yl)(4-(6-(((3aR,5s,6aS)-2-((tetrahydro-2H-pyran-4-yl)methyl)octahydrocyclopenta[c]pyrrol-5-yl)amino)pyridazin-3-yl)phenyl)methanone]",
